Results taken from patent US6884809B2 (Cornell Research Foundation, Inc., priority 2001, dated 2005).

Assays:
Na+/H+ exchanger (NHE) = experiment: NHE activity: Na+-dependent pHi recovery after NH4Cl acid pulse in BCECF-loaded SKNMC-H3 cells; format: cell-based, human
[1] = system: guinea-pig heart synaptosomes; format: cell-based
SH-SY5Y-H3 cells [2] = format: cell-based, human
SH-SY5Y cells [3] = format: cell-based, human
SH-SY5Y-H3 cells [4] = experiment: Cai measurements (Fura-2) in K+-depolarized H3R-transfected SH-SY5Y-H3 cells; format: cell-based, human
H3R = H3R (Homo sapiens, UniProt Q9Y5N1); details: read-out: EC50 to activate the H3R; cited from earlier work
SH-SY5Y cells [5] = format: cell-based, human; remark: listed apart in the source
[6] = thioperamide 300 nM plus imetit 100 nM

Chain of H3R (Q9Y5N1 whole entry, species assumed): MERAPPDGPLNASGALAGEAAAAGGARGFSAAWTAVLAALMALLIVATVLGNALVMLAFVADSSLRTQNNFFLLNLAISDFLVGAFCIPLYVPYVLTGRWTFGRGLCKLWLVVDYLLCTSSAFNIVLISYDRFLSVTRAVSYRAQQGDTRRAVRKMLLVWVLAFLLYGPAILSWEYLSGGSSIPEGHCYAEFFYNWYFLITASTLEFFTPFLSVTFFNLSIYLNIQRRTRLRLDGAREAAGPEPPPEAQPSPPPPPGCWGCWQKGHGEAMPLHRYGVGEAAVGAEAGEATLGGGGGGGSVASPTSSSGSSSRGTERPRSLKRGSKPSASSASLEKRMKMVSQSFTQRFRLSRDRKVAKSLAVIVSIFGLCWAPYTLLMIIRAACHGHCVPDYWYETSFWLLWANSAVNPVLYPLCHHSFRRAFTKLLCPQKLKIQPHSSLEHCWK

N=C(N)SCCc1cnc[nH]1 [imetit, Imetit]
inhibition of NHE activity (Na+/H+ exchanger (NHE); imetit 100 nM): 35% | rate of intracellular alkalinization, representative single cell (Na+/H+ exchanger (NHE); imetit 100 nM, cell of FIG. 1B, control cell 0.094): 0.050 pHi units/min | final pHi after re-introduction of Na+ (Na+/H+ exchanger (NHE); imetit 100 nM, n=277 cells): 6.61±0.01 | initial pHi (Na+/H+ exchanger (NHE); imetit-treated cells, n=277): 6.74±0.01 | pHi right before Na+ was reintroduced (0 Na pHi) (Na+/H+ exchanger (NHE); imetit-treated cells, n=277): 6.26±0.01 | cells with rates lower than the mean control rate of 0.074 pHi units/min (Na+/H+ exchanger (NHE); imetit-treated, 277 cells): 77% | concentration-response curve for K+-induced exocytosis of endogenous NE [1]: significantly shifted downwards | concentration-response curve for K+-induced exocytosis of [3H]NE (SH-SY5Y-H3 cells [2]): significantly shifted downwards | K+-elicited Cai transients (SH-SY5Y cells [3]): fails to affect Cai transients | effect on peak Cai concentration elicited by 100 mM K+ (SH-SY5Y cells [3]): failed to affect peak Cai concentration | K+-elicited Ca2+ transients (SH-SY5Y-H3 cells [4]): markedly depressed | decrease in peak Cai concentration elicited by 100 mM K+ (SH-SY5Y-H3 cells [4]): 55% | EC50 (H3R): 2 nM

CCN(c1nc(N)c(C(=O)N=C(N)N)nc1Cl)C(C)C [EIPA, 5-(N-ethyl-N-isopropyl)amiloride]
inhibition of NHE activity (Na+/H+ exchanger (NHE); EIPA 10 uM): 50% | mean rate of Na+-dependent intracellular alkalinization (NHE activity) (Na+/H+ exchanger (NHE); EIPA 10 uM, control 0.074): 0.031 pHi units/min

ω-conotoxin GVIA [ω-CTX]
concentration-response curve for K+-induced exocytosis of endogenous NE [1]: shifted markedly downwards | concentration-response curve for K+-induced exocytosis of [3H]NE (SH-SY5Y cells [5]): shifted markedly downwards | concentration-response curve for K+-induced exocytosis of [3H]NE (SH-SY5Y-H3 cells [2]): shifted markedly downwards | increase in peak Cai concentration on K+ depolarization (SH-SY5Y cells [3]): markedly attenuated | increase in peak Cai concentration on K+ depolarization (SH-SY5Y-H3 cells [4]): markedly attenuated

S=C(NC1CCCCC1)N1CCC(c2c[nH]cn2)CC1 [thioperamide, Thioperamide]
effect on NHE activity (Na+/H+ exchanger (NHE); thioperamide 300 nM alone): did not significantly modify NHE activity | effect on imetit-induced NHE attenuation (Na+/H+ exchanger (NHE); [6]): abolished the imetit-induced NHE attenuation | effect on imetit-induced attenuation of endogenous NE exocytosis [1]: prevented | effect on imetit-induced attenuation of [3H]NE exocytosis (SH-SY5Y-H3 cells [2]): prevented | effect on imetit-induced depression of the rise in Cai concentration (SH-SY5Y-H3 cells [4]; [6]): completely prevented | effect on the imetit response of Ca2+ transients (SH-SY5Y-H3 cells [4]; [6]): prevented
